These results are taken from patent US7268224B2, “Human glucocorticoid receptor 1A promoter and splice variants” (Board of Supervisors of Louisianna State University and …, priority 2000, dated 2007).

The test system of data set [1] is GR exon 1 transcripts in CEM-C7 cells. The data set can be described thus: RT-PCR of GR exon 1 transcripts after hormone treatment, CEM-C7. The conditions noted are these: 1 μM.
Data set [2] relates to GR 1A3 exon-containing transcripts in CEM-C7 cells. Put plainly: Northern blot of GR exon 1A transcripts after glucocorticoid treatment. The conditions noted are these: 1 μM, data not shown. The data set is classed as cell-based, human. The source says: Glucocorticoid hormone treatment is known to up-regulate the levels of both GR mRNA and GR protein in immature T-lymphocytes and in some T-lymphoblasts that undergo apoptosis following hormone treatment. See Denton et al., (1993); and L. P. Eisen et al., “Positive Regulation of the Glucocorticoid Receptor in Human T-Cells Sensitive to the Cytolytic Effects of Glucocorticoids,” J. Biol. Chem., vol. 263, pp. 12044-12048 (1988). The human CEM-C7 acute lymphoblastic leukemia (ALL) cell line has served as a model system for glucocorticoid-sensitive human T-cell ALL. See M. R. Norman and E. B. Thompson, “Characterization of a Glucocorticoid-Sensitive Human Lymphoid Cell Line,” Cancer Res., vol. 37, pp. 3785-3791 (1977). CEM-C7 cells were treated with 1 μM dexamethasone (a glucocorticoid analogue) for various periods of time, from 6 hr to 48 hr. RNA was then extracted, and northern blots were prepared and probed with the GR-1A-exon-specific probes (exon 1A1, exon 1A2, and exon 1A3; Table 1). […] Up-regulation of exon 1A1 and exon 1A2 transcripts was also observed (data not shown).

Data set [3] deals with hormone-resistant clones of human CEM-C7, T-ALL cells, or mouse SAK8 T-lymphoma cells. The conditions noted are these: hormone-resistant clones in culture; cited from earlier work.
Data set [4] deals with IRF-1 and IRF-2 protein levels in Jurkat cells. Put plainly: IRF protein levels in interferon-treated Jurkat cells. The note with it: data not shown. The data set is classed as cell-based, human. The source says:
By identifying transcription factor binding sites in the 1A promoter and exon, we will determine whether activation of any of these factors will directly activate the hGR 1A promoter. […] See H. Harada et al., “Structurally Similar but Functionally Distinct Factors, IRF-1 and IRF-2, Bind to the Same Regulatory Elements of IFN and IFN-Inducible Genes,” Cell, vol. 58, pp. 729-739 (1989).

With `C[C@@H]1C[C@H]2[C@@H]3CCC4=CC(=O)C=C[C@]4(C)[C@@]3(F)[C@@H](O)C[C@]2(C)[C@@]1(O)C(=O)CO` [dexamethasone], the “increase in exon 1A3-containing transcripts” value in data set [1] turned out to be 2.5 fold. Moreover, in data set [2], the “exon 1A1 and exon 1A2 transcripts” value is given as “Up-regulation”.
Take `Nc1ncn([C@@H]2O[C@H](CO)[C@@H](O)[C@H]2O)c(=O)n1` [5-azacytidine]: the “sensitivity to glucocorticoid-mediated killing” value in data set [3] is recorded as “become stably sensitive to glucocorticoid-mediated killing”.
As for interferon-α, in data set [4], the IRF-1 protein levels result is recorded as “dramatic increase” and the IRF-2 protein levels result is reported as “not IRF-2”.

B1: interferon-γ: interferon used to treat Jurkat cells (protein, UniProt P01579 24-161, looked up)
Interferon gamma: QDPYVKEAENLKKYFNAGHSDVADNGTLFLGILKNWKEESDRKIMQSQIVSFYFKLFKNFKDDQSIQKSVETIKEDMNVKFFNSNKKKRDDFEKLTNYSVTDLNVQRKAIHELIQVMAELSPAAKTGKRKRSQMLFRG
For B1, in data set [4], the IRF-1 protein levels entry is given as “dramatic increase” and the IRF-2 protein levels result is given as “not IRF-2”.
